{"source": "patent US20220119354A1", "about": "“DIAMINO-SUBSTITUTED PYRIDINES AND PYRIMIDINES AS HERBICIDES” (FMC Corporation, priority 2019, published 2022)", "assay_type_in_all_cases": "in vivo", "key": {"[1]": {"system": "barnyardgrass (Echinochloa crus-galli)", "assay": "Test A postemergence, barnyardgrass", "details": "0 to 100 scale", "description": "(§1) Seeds of plant species selected from barnyardgrass (Echinochloa crus-galli), kochia (Kochia scoparia), ragweed (common ragweed, Ambrosia elatior), ryegrass, Italian (Lolium multiflorum), foxtail, giant (Setaria faberii), foxtail, green (Setaria viridis), and pigweed (Amaranthus retroflexus) were planted into a blend of loam soil and sand and treated preemergence with a directed soil spray using test chemicals formulated in a non-phytotoxic solvent mixture which included a surfactant.\n(§2) At the same time, plants selected from these weed species and also wheat (Triticum aestivum), corn (Zea mays), blackgrass (Alopecurus myosuroides), and galium (catchweed bedstraw, Galium aparine) were planted in pots containing the same blend of loam soil and sand and treated with postemergence applications of test chemicals formulated in the same manner. Plants ranged in height from 2 to 10 cm and were in the one- to two-leaf stage for the postemergence treatment. Treated plants and untreated controls were maintained in a greenhouse for approximately 10 d, after which time all treated plants were compared to untreated controls and visually evaluated for injury. Plant response ratings, summarized in Table A, are based on a 0 to 100 scale where 0 is no effect and 100 is complete control. A dash (-) response means no test result."}, "[2]": {"system": "ryegrass, Italian (Lolium multiflorum)", "assay": "Test A postemergence, Italian ryegrass", "details": "0 to 100 scale", "description": "as §1, §2"}, "[3]": {"system": "barnyardgrass (Echinochloa crus-galli)", "assay": "Test A preemergence, barnyardgrass", "details": "0 to 100 scale", "description": "as §1, §2"}, "[4]": {"system": "foxtail, giant (Setaria faberii)", "assay": "Test A preemergence, giant foxtail", "details": "0 to 100 scale", "description": "as §1, §2"}, "kochia (Kochia scoparia) [5]": {"system": "kochia (Kochia scoparia)", "assay": "Test A preemergence, kochia", "details": "0 to 100 scale", "description": "as §1, §2"}, "[6]": {"system": "ragweed (common ragweed, Ambrosia elatior)", "assay": "Test A postemergence, ragweed", "details": "0 to 100 scale", "description": "as §1, §2"}, "[7]": {"system": "ryegrass, Italian (Lolium multiflorum)", "assay": "Test A preemergence, Italian ryegrass", "details": "0 to 100 scale", "description": "as §1, §2"}, "[8]": {"system": "blackgrass (Alopecurus myosuroides)", "assay": "Test A postemergence, blackgrass", "details": "0 to 100 scale", "description": "as §1, §2"}, "[9]": {"system": "sedge, umbrella (small-flower umbrella sedge, Cyperus difformis)", "assay": "Test B flooded paddy test, umbrella sedge", "details": "Flood, 250 g ai/ha, applied to paddy water, 2-leaf stage, visual evaluation after 13 to 15 d", "procedure": "(§3) Plant species in the flooded paddy test selected from rice (Oryza sativa), sedge, umbrella (small-flower umbrella sedge, Cyperus difformis), ducksalad (Heteranthera limosa), and barnyardgrass (Echinochloa crus-galli) were grown to the 2-leaf stage for testing. At the time of treatment, test pots were flooded to 3 cm above the soil surface, treated by application of test compounds directly to the paddy water, and then maintained at that water depth for the duration of the test. Treated plants and controls were maintained in a greenhouse for 13 to 15 d, after which time all species were compared to controls and visually evaluated. Plant response ratings, summarized in Table B, are based on a scale of 0 to 100 where 0 is no effect and 100 is complete control. A dash (-) response means no test result."}, "kochia (Kochia scoparia) [10]": {"system": "kochia (Kochia scoparia)", "assay": "Test A postemergence, kochia", "details": "0 to 100 scale", "description": "as §1, §2"}, "corn (Zea mays)": {"system": "corn (Zea mays)", "assay": "Test A postemergence, corn", "details": "0 to 100 scale", "description": "as §1, §2"}, "[11]": {"system": "ducksalad (Heteranthera limosa)", "assay": "Test B flooded paddy test, ducksalad", "details": "Flood, 250 g ai/ha, applied to paddy water, 2-leaf stage, visual evaluation after 13 to 15 d", "procedure": "as §3"}, "rice (Oryza sativa)": {"system": "rice (Oryza sativa)", "assay": "Test B flooded paddy test, rice", "details": "Flood, 250 g ai/ha, applied to paddy water, 2-leaf stage, visual evaluation after 13 to 15 d", "procedure": "as §3"}, "[12]": {"system": "pigweed (Amaranthus retroflexus)", "assay": "Test A postemergence, pigweed", "details": "0 to 100 scale", "description": "as §1, §2"}, "[13]": {"system": "galium (catchweed bedstraw, Galium aparine)", "assay": "Test A postemergence, galium", "details": "0 to 100 scale", "description": "as §1, §2"}, "[14]": {"system": "foxtail, giant (Setaria faberii)", "assay": "Test A postemergence, giant foxtail", "details": "0 to 100 scale", "description": "as §1, §2"}, "[15]": {"system": "wheat (Triticum aestivum)", "assay": "Test A postemergence, wheat", "details": "0 to 100 scale", "description": "as §1, §2"}, "[16]": {"system": "barnyardgrass (Echinochloa crus-galli)", "assay": "Test B flooded paddy test, barnyardgrass", "details": "Flood, 250 g ai/ha, applied to paddy water, 2-leaf stage, visual evaluation after 13 to 15 d", "procedure": "as §3"}, "[17]": {"system": "pigweed (Amaranthus retroflexus)", "assay": "Test A preemergence, pigweed", "details": "0 to 100 scale", "description": "as §1, §2"}}}
{"smiles": "C[C@H](Nc1ncc(C(F)(F)F)c(N)n1)C1Cc2ccccc2C1", "note": "[Compound 12]", "values": [{"measurement": "Plant response rating, Barnyardgrass", "setting": "[1]; 125 g ai/ha", "value": 0}, {"measurement": "Plant response rating, Barnyardgrass", "setting": "[1]; 500 g ai/ha", "value": 0}, {"measurement": "Plant response rating, Ryegrass, Italian", "setting": "[2]; 125 g ai/ha", "value": 0}, {"measurement": "Plant response rating, Ryegrass, Italian", "setting": "[2]; 500 g ai/ha", "value": 0}, {"measurement": "Plant response rating, Barnyardgrass", "setting": "[3]; 125 g ai/ha", "value": 0}, {"measurement": "Plant response rating, Barnyardgrass", "setting": "[3]; 500 g ai/ha", "value": 0}, {"measurement": "Plant response rating, Foxtail, Giant", "setting": "[4]; 125 g ai/ha", "value": 0}, {"measurement": "Plant response rating, Foxtail, Giant", "setting": "[4]; 500 g ai/ha", "value": 0}, {"measurement": "Plant response rating, Kochia", "setting": "kochia (Kochia scoparia) [5]; 125 g ai/ha", "value": 0}, {"measurement": "Plant response rating, Kochia", "setting": "kochia (Kochia scoparia) [5]; 500 g ai/ha", "value": 0}, {"measurement": "Plant response rating, Ragweed", "setting": "[6]; 125 g ai/ha", "value": 0}, {"measurement": "Plant response rating, Ragweed", "setting": "[6]; 500 g ai/ha", "value": 0}, {"measurement": "Plant response rating, Ryegrass, Italian", "setting": "[7]; 125 g ai/ha", "value": 0}, {"measurement": "Plant response rating, Ryegrass, Italian", "setting": "[7]; 500 g ai/ha", "value": 0}, {"measurement": "Plant response rating, Blackgrass", "setting": "[8]; 125 g ai/ha", "value": 0}, {"measurement": "Plant response rating, Blackgrass", "setting": "[8]; 500 g ai/ha", "value": 0}, {"measurement": "Plant response rating, Sedge, Umbrella (0 to 100 scale, 0 is no effect, 100 is complete control)", "setting": "[9]", "value": 0}, {"measurement": "Plant response rating, Kochia", "setting": "kochia (Kochia scoparia) [10]; 125 g ai/ha", "value": 0}, {"measurement": "Plant response rating, Kochia", "setting": "kochia (Kochia scoparia) [10]; 500 g ai/ha", "value": 30}, {"measurement": "Plant response rating, Corn", "setting": "corn (Zea mays); 125 g ai/ha", "value": 0}, {"measurement": "Plant response rating, Corn", "setting": "corn (Zea mays); 500 g ai/ha", "value": 0}, {"measurement": "Plant response rating, Ducksalad (0 to 100 scale, 0 is no effect, 100 is complete control)", "setting": "[11]", "value": 0}, {"measurement": "Plant response rating, Rice (0 to 100 scale, 0 is no effect, 100 is complete control)", "setting": "rice (Oryza sativa)", "value": 0}, {"measurement": "Plant response rating, Pigweed", "setting": "[12]; 125 g ai/ha", "value": 30}, {"measurement": "Plant response rating, Pigweed", "setting": "[12]; 500 g ai/ha", "value": 40}, {"measurement": "Plant response rating, Galium", "setting": "[13]; 125 g ai/ha", "value": 0}, {"measurement": "Plant response rating, Galium", "setting": "[13]; 500 g ai/ha", "value": 0}, {"measurement": "Plant response rating, Foxtail, Giant", "setting": "[14]; 125 g ai/ha", "value": 0}, {"measurement": "Plant response rating, Foxtail, Giant", "setting": "[14]; 500 g ai/ha", "value": 0}, {"measurement": "Plant response rating, Wheat", "setting": "[15]; 125 g ai/ha", "value": 0}, {"measurement": "Plant response rating, Wheat", "setting": "[15]; 500 g ai/ha", "value": 0}, {"measurement": "Plant response rating, Barnyardgrass (0 to 100 scale, 0 is no effect, 100 is complete control)", "setting": "[16]", "value": 0}, {"measurement": "Plant response rating, Pigweed", "setting": "[17]; 125 g ai/ha", "value": 0}, {"measurement": "Plant response rating, Pigweed", "setting": "[17]; 500 g ai/ha", "value": 50}]}
{"smiles": "Cc1cc2oc([C@@H](C)Nc3ncc(C(F)(F)F)c(N)n3)cc2cc1F", "note": "[Compound 31]", "values": [{"measurement": "Plant response rating, Barnyardgrass", "setting": "[1]; 125 g ai/ha", "value": 20}, {"measurement": "Plant response rating, Barnyardgrass", "setting": "[1]; 500 g ai/ha", "value": 80}, {"measurement": "Plant response rating, Ryegrass, Italian", "setting": "[2]; 125 g ai/ha", "value": 30}, {"measurement": "Plant response rating, Ryegrass, Italian", "setting": "[2]; 500 g ai/ha", "value": 10}, {"measurement": "Plant response rating, Barnyardgrass", "setting": "[3]; 125 g ai/ha", "value": 70}, {"measurement": "Plant response rating, Barnyardgrass", "setting": "[3]; 500 g ai/ha", "value": 100}, {"measurement": "Plant response rating, Foxtail, Giant", "setting": "[4]; 125 g ai/ha", "value": 90}, {"measurement": "Plant response rating, Foxtail, Giant", "setting": "[4]; 500 g ai/ha", "value": 100}, {"measurement": "Plant response rating, Kochia", "setting": "kochia (Kochia scoparia) [5]; 125 g ai/ha", "value": 40}, {"measurement": "Plant response rating, Kochia", "setting": "kochia (Kochia scoparia) [5]; 500 g ai/ha", "value": 90}, {"measurement": "Plant response rating, Ragweed", "setting": "[6]; 125 g ai/ha", "value": 60}, {"measurement": "Plant response rating, Ragweed", "setting": "[6]; 500 g ai/ha", "value": 90}, {"measurement": "Plant response rating, Ryegrass, Italian", "setting": "[7]; 125 g ai/ha", "value": 20}, {"measurement": "Plant response rating, Ryegrass, Italian", "setting": "[7]; 500 g ai/ha", "value": 80}, {"measurement": "Plant response rating, Blackgrass", "setting": "[8]; 125 g ai/ha", "value": 20}, {"measurement": "Plant response rating, Blackgrass", "setting": "[8]; 500 g ai/ha", "value": 10}, {"measurement": "Plant response rating, Sedge, Umbrella (0 to 100 scale, 0 is no effect, 100 is complete control)", "setting": "[9]", "value": 0}, {"measurement": "Plant response rating, Kochia", "setting": "kochia (Kochia scoparia) [10]; 125 g ai/ha", "value": 60}, {"measurement": "Plant response rating, Kochia", "setting": "kochia (Kochia scoparia) [10]; 500 g ai/ha", "value": 90}, {"measurement": "Plant response rating, Corn", "setting": "corn (Zea mays); 125 g ai/ha", "value": 0}, {"measurement": "Plant response rating, Corn", "setting": "corn (Zea mays); 500 g ai/ha", "value": 30}, {"measurement": "Plant response rating, Ducksalad (0 to 100 scale, 0 is no effect, 100 is complete control)", "setting": "[11]", "value": 0}, {"measurement": "Plant response rating, Rice (0 to 100 scale, 0 is no effect, 100 is complete control)", "setting": "rice (Oryza sativa)", "value": 0}, {"measurement": "Plant response rating, Pigweed", "setting": "[12]; 125 g ai/ha", "value": 90}, {"measurement": "Plant response rating, Pigweed", "setting": "[12]; 500 g ai/ha", "value": 100}, {"measurement": "Plant response rating, Galium", "setting": "[13]; 125 g ai/ha", "value": 70}, {"measurement": "Plant response rating, Galium", "setting": "[13]; 500 g ai/ha", "value": 100}, {"measurement": "Plant response rating, Foxtail, Giant", "setting": "[14]; 125 g ai/ha", "value": 10}, {"measurement": "Plant response rating, Foxtail, Giant", "setting": "[14]; 500 g ai/ha", "value": 70}, {"measurement": "Plant response rating, Wheat", "setting": "[15]; 125 g ai/ha", "value": 0}, {"measurement": "Plant response rating, Wheat", "setting": "[15]; 500 g ai/ha", "value": 0}, {"measurement": "Plant response rating, Barnyardgrass (0 to 100 scale, 0 is no effect, 100 is complete control)", "setting": "[16]", "value": 0}, {"measurement": "Plant response rating, Pigweed", "setting": "[17]; 125 g ai/ha", "value": 90}, {"measurement": "Plant response rating, Pigweed", "setting": "[17]; 500 g ai/ha", "value": 100}]}
